Experimental data published in patent US20240076609A1, “COMPOSITIONS AND METHODS FOR CULTURING AND EXPANDING CELLS” (LIFE TECHNOLOGIES CORPORATION, priority 2017, published 2024).

Columns and labels:
Naïve T cells = assay: Expansion of naïve T cells with 2-DG; format: cell-based, human; conditions: 4 mM 2-DG
Protocol: T cell activation and expansion: T cells (seeding density 1×10^6 vc/mL) were activated with DYNABEADS® Human T-Expander CD3/CD28 (Thermo Fisher Scientific, Cat. No. 11141D) at a ratio of 3 beads per T cell and cultured in serum-free medium, animal origin free medium. T cells were counted on days 5, 7, 10, and 12 on a Vi-CELL XR analyzer (Beckman Coulter, Indianapolis IN) and fed with or without 2-DG (0.25 mM, 0.5 mM, 1 mM, 2 mM, and 4 mM) and 5% human AB serum to a density of 5×10^5 vc/mL on days 3, 5, and 7 and 1×10^6 vc/mL on day 10. For some studies, CD8+ and CD4+ T cells were isolated from PBMCs by negative selection using Untouched Human CD8+ and CD4+ T Cells Kits. Naïve and non-naïve T cells were isolated from enriched T cells by positive selection using CD45RA nanobeads (Miltenyi). […]

Primary human T cells = assay: CD8+/CD4+ phenotype with 2-DG at different time points and every feed; format: cell-based; conditions: for Fold Increase compared to Baseline: Day 10 vs Day 0 ratio
Protocol: FIG. 45 represents the data shown in Table 39 which highlights the fold increase in CD8+ to CD4+ ratio of T cells cultured with 2-DG at different time points and every time the cells were fed.
Phenotype: Primary human T cells were expanded for 10 days with and without 2-DG and 5% human AB serum. DYNABEADS® were removed from 2×10^6 cells by magnetic separation. Surface staining was performed with antibodies against CD3 (Invitrogen, Cat. No. CD0329), CD4 (Molecular Probes, Cat. No. A15858), CD8 (Invitrogen, Cat. No. MHCD0828). Flow cytometric analysis was performed on a Gallios flow cytometer and Kaluza software (Beckman Coulter, Indianapolis IN).

[1] = 0.25 mM 2-DG at Day 0, Day 10 of culture
[2] = 0.25 mM 2-DG at Day 0, after 10 days of culture
[3] = 0.25 mM 2-DG at Day 3, Day 10 of culture
[4] = 0.25 mM 2-DG at Day 3, after 10 days of culture
[5] = 0.25 mM 2-DG at Day 5, Day 10 of culture
[6] = 0.25 mM 2-DG at Day 5, after 10 days of culture
[7] = 0.25 mM 2-DG at Day 7, Day 10 of culture
[8] = 0.25 mM 2-DG at Day 7, after 10 days of culture
[9] = 0.25 mM 2-DG at Every Feed, Day 10 of culture
[10] = 0.25 mM 2-DG at Every Feed, after 10 days of culture

O=CC[C@@H](O)[C@H](O)[C@H](O)CO [2-DG, 2-Deoxy-D-Glucose]
effect of 2-DG on growth of naïve T cells (Naïve T cells; 12 days): did not affect growth of either cell type | Cultured Naïve T Cell Population Doublings (Naïve T cells; day 5): 1.70 | Cultured Naïve T Cell Population Doublings (Naïve T cells; day 7): 3.92 | Cultured Naïve T Cell Population Doublings (Naïve T cells; day 10): 5.45 | Cultured Naïve T Cell Population Doublings (Naïve T cells; day 12): 6.13 | % CD4+ (Primary human T cells; [1]): 74.78% | % CD8+ (Primary human T cells; [1]): 22.88% | % Ratios (CD8+/CD4+) (Primary human T cells; [1]): 0.31 | Fold Increase compared to Baseline (Primary human T cells; 0.25 mM 2-DG at Day 0): 1.38 | % CD4+ (Primary human T cells; [2]): 74.78% | % CD8+ (Primary human T cells; [2]): 22.88% | % Ratios (CD8+/CD4+) (Primary human T cells; [2]): 0.31 | % CD4+ (Primary human T cells; [3]): 70.62% | % CD8+ (Primary human T cells; [3]): 25.76% | % Ratios (CD8+/CD4+) (Primary human T cells; [3]): 0.36 | Fold Increase compared to Baseline (Primary human T cells; 0.25 mM 2-DG at Day 3): 1.64 | % CD4+ (Primary human T cells; [4]): 70.62% | % CD8+ (Primary human T cells; [4]): 25.76% | % Ratios (CD8+/CD4+) (Primary human T cells; [4]): 0.36 | % CD4+ (Primary human T cells; [5]): 76.18% | % CD8+ (Primary human T cells; [5]): 21.26% | % Ratios (CD8+/CD4+) (Primary human T cells; [5]): 0.28 | Fold Increase compared to Baseline (Primary human T cells; 0.25 mM 2-DG at Day 5): 1.26 | % CD4+ (Primary human T cells; [6]): 76.18% | % CD8+ (Primary human T cells; [6]): 21.26% | % Ratios (CD8+/CD4+) (Primary human T cells; [6]): 0.28 | % CD4+ (Primary human T cells; [7]): 73.28% | % CD8+ (Primary human T cells; [7]): 23.91% | % Ratios (CD8+/CD4+) (Primary human T cells; [7]): 0.33 | Fold Increase compared to Baseline (Primary human T cells; 0.25 mM 2-DG at Day 7): 1.47 | % CD4+ (Primary human T cells; [8]): 73.28% | % CD8+ (Primary human T cells; [8]): 23.91% | % Ratios (CD8+/CD4+) (Primary human T cells; [8]): 0.33 | % CD4+ (Primary human T cells; [9]): 76.76% | % CD8+ (Primary human T cells; [9]): 20.35% | % Ratios (CD8+/CD4+) (Primary human T cells; [9]): 0.27 | Fold Increase compared to Baseline (Primary human T cells; 0.25 mM 2-DG at Every Feed): 1.19 | % CD4+ (Primary human T cells; [10]): 76.76% | % CD8+ (Primary human T cells; [10]): 20.35% | % Ratios (CD8+/CD4+) (Primary human T cells; [10]): 0.27 | Fold Increase in CD8+ to CD4+ ratio (Primary human T cells; 0.25 mM 2-DG every time cells were fed): 3 fold | Fold Increase in CD8+ to CD4+ ratio (Primary human T cells; 0.25 mM 2-DG on day 7 only): 3 fold
